The values below are quoted from earlier work in PMC10817097, “Caffeic Acid Phosphanium Derivatives: Potential Selective Antitumor, Antimicrobial and Antiprotozoal Agents” (International Journal of Molecular Sciences, 2024).

Common to all, as to set-up: method as in PMID 36771693
The subject of series [1] is NIH 3T3 (murine fibroblasts). Conditions: NIH 3T3 control cells, standard; cited from earlier work.
In series [2] the test system is MCF-10A cell line (human mammary gland epithelial cells). Conditions: MCF-10A control cells, standard; cited from earlier work.
Series [3] relates to HCT116 (human colorectal adenocarcinoma). Conditions: HCT116, standard; cited from earlier work.
In series [4] the test system is HeLa (human cervical adenocarcinoma). Conditions: standard; cited from earlier work.
The test system of series [5] is PANC-1 (human pancreatic adenocarcinoma). Conditions: PANC-1, standard; cited from earlier work.
For series [6], the system named is MCF-7 (human breast adenocarcinoma). Conditions: MCF-7, standard; cited from earlier work.
The subject of series [7] is A2058 (human metastatic melanoma). Conditions: A2058, standard; cited from earlier work.
For series [8], the system named is MDA-MB-231 (human mammary gland adenocarcinoma). Conditions: MDA-MB-231, standard; cited from earlier work.
The subject of series [9] is Jurkat (human leukemic T cell lymphoma). Conditions: standard; cited from earlier work.

For orientation: IC50 means the concentration that inhibits the measured activity by half. On to `N.N.[Cl][Pt][Cl]` [CisPt, cisplatin], for which the IC50 is 40.6 µM in series [1]; 25.9 µM in series [2]; 7.4 µM in series [3]; 35.4 µM in [4]; 16.5 µM in series [5]; 29.7 µM in series [6]. For the same compound, the IC50 in series [7] was 21.5 µM; in series [8], 7.1 µM; in [9], 6.3 µM.
